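Tested at 5 concentrations; 48 h exposure; 96-well plates; endpoints linearly interpolated, else capped at highest concentration. At the TGI there is no net growth.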

The text below walks through data of PubChem BioAssay (NCI).

Common to all, as to experiment: growth of human tumour cells (NCI), 48 h
Test [1] relates to HOP-92 NSCLC.
Test [2] deals with LOX IMVI melanoma.
Test [3] deals with NCI-H522 lung.
For test [4], the system named is COLO 205 colon.
The test system of test [5] is MOLT-4 leukemia.
In test [6] the test system is SF-295 CNS.
The subject of test [7] is RXF 393 renal.
For test [8], the system named is KM12 colon.
In test [9] the test system is MCF7 breast.
Test [10] has as its system PC-3 prostate.

`CCN(CC)CCCNC(=O)c1ccc([N+](=O)[O-])cc1O`: the TGI in test [1], in test [2], in test [3], in test [4], in test [5] and in test [6] was over 100 µM in each case. The TGI in test [7] and in test [8] was over 100 µM in each case.

Regarding `C=Cc1ccc(C)[n+](C[Si](C)(C)O[Si](C)(C)C[n+]2cc(C=C)ccc2C)c1`, the TGI in test [1], in test [2], in [3], in test [4], in [5] and in [6] was over 100 µM throughout. In addition, the TGI in test [7] and in test [8] was over 100 µM throughout.

In the case of `N#CC1=C(c2ccccc2)NNC(c2ccc(Cl)cc2)CC1=O` (stereo unspecified), the TGI was over 100 µM in [1]; over 100 µM in test [2]; 51.7 µM in test [3]; over 100 µM in test [5]; 73.1 µM in test [6]; over 100 µM in [7]. Further, in [8], the TGI is over 100 µM.

`Cn1ccnc1C(O)(c1nccn1C)c1nccn1C`: the TGI in [1], in test [2], in test [3], in test [4], in test [6] and in [7] was over 100 µM each time. Besides, in test [8], the TGI was over 100 µM.

With `O=C1NCCS(=O)(=O)N[C@@H](CC2=CC=CCC2)C(=O)N2CCCC12` (stereo partly specified), the TGI in test [1], in test [2], in [3], in test [4], in [5] and in [6] was over 100 µM throughout. The TGI in test [7] and in test [8] was over 100 µM each time.

`CCOC(=O)c1c(-c2ccccc2)c(-c2ccccc2)cn1C`: the TGI in [1], in [3], in test [5], in test [6], in [7] and in test [8] was over 10 µM in each case.

In the case of `CC1CN=C(N(C(=O)Nc2ccc(F)c(Cl)c2)c2ccccc2)S1` (stereo unspecified), the TGI in test [1] was 48.1 µM; in [2], 32.5 µM; in test [4] it was 38.9 µM; in test [5], 62.2 µM; in test [6], over 100 µM; in [9] it was 25.9 µM. Further, the TGI in test [10] was 95.5 µM; in [8] it was 78.3 µM.

Take `S=C(/N=c1\sc(Nc2ccc(Cl)cc2)nc2sc3c(c12)CCN(N1CCc2c(sc4nc(Nc5ccc(Cl)cc5)s/c(=N\C(=S)Nc5ccc(Cl)cc5)c24)C1)C3)Nc1ccc(Cl)cc1`: the TGI is over 100 µM in [3]; over 100 µM in test [4]; over 100 µM in test [5]; over 100 µM in [6]; over 100 µM in [9]; 36.7 µM in [7]. In addition, the TGI in test [10] was 87.9 µM.

For the compound `O=C(CN(c1ccccc1)c1ccccc1)N1c2ccccc2C2C=CC=CC21` (stereo unspecified), the TGI was 44.5 µM in [2]; 49 µM in test [3]; 24.7 µM in test [4]; over 22.6 µM in test [5]; 58.8 µM in test [6]; over 54.7 µM in test [7]. Moreover, the TGI in test [8] was determined as 96.8 µM.

For `O=C1Sc2ccccc2C(=O)N2CSCC12` (stereo unspecified), the TGI in test [1], in test [2], in [3], in test [4], in test [5] and in [6] was over 100 µM in each case. Besides, the TGI in test [7] and in test [8] was over 100 µM in each case.

For the compound `O=C(Cc1ccccc1)NN1C(=O)/C(=C\c2ccccc2)SC1=Nc1ccccc1`, the TGI in test [1], in test [4], in test [5], in test [6], in test [9] and in test [7] was over 100 µM in each case. Also, in [8], the TGI was over 100 µM.

On to `Cc1cn([C@@H]2C[C@H](CO)[C@@H](O)C2)c(=O)[nH]c1=O`, for which the TGI in test [1], in test [2], in [3], in test [4], in [5] and in test [6] was over 100 µM each time. The TGI in [8] is over 100 µM.

As for `O=C(NC(COC(=O)C(Cc1ccccc1)NC(=O)c1ccccc1)Cc1ccccc1)c1ccccc1` (stereo unspecified), the TGI in test [1], in test [3], in test [5], in test [6], in test [9] and in test [10] was over 50 µM throughout. This compound registered a TGI in test [8] of over 50 µM.

Regarding `CSC(=Nc1ccccc1)N(c1ccccc1)c1nc(=[N+](C)C)ss1`, the TGI amounted to 7.09 µM in test [1]; 12.7 µM in test [2]; 1.72 µM in test [3]; 3.88 µM in test [4]; 7.54 µM in test [5]; 25.1 µM in test [6]. Moreover, the figures for the TGI in test [7] and in test [8] were 12.7 µM and 13.7 µM, respectively.

With `COc1ccc(-c2oc(/C=N/NC(N)=S)c([N+](=O)[O-])c2-c2ccc(OC)c(OC)c2)cc1OC`, the TGI in test [1] is 79 µM; in [2], 66 µM; in test [3] it was 65.3 µM; in [4] it was over 100 µM; in test [6], 53.4 µM; in test [7] it was 45.6 µM.

`COc1ccc(CC2c3c(cc(OC)c(OC)c3OC)CCN2C)cc1OC` (stereo unspecified): the TGI in [3], in [5], in test [6] and in test [8] was over 100 µM each time.

As to `COc1cc2c(cc1OC)[C@H]1CN3CCC[C@H]3C=C1c1ccc(OC)c(O)c1-2`, the TGI in test [1] turned out to be 0.000382 µM; in test [2], 0.000604 µM; in test [3], 0.000856 µM; in test [4], 0.00119 µM; in test [6], 0.00039 µM; in test [7] it was 0.0437 µM. The TGI in test [10] was determined as 0.0269 µM; in test [8] it was 0.00183 µM.
